Laboratory results taken from US20220298115A1, “SMALL MOLECULE INHIBITORS OF ACETYL COENZYME A SYNTHETASE SHORT CHAIN 2 (ACSS2)” (Curadev Pharma Pvt. Ltd., priority 2019, published 2022).
Like-named read-outs stand apart in the source and are kept apart here.

What was measured:
[1] = system: [14C] acetate incorporation in macromolecules, BT474 cells; test: Cell based [14C] acetate incorporation assay; conditions: read-out: Cellular Activity (IC50 range)
Protocol: Cell Based [^14C] Acetate Incorporation Assay
In the cellular assay, ACSS2 inhibitors were screened against [^14C] acetate incorporation in macromolecules. 4×10^4 BT474 cells were plated in 96 well plates in growth media composed of DMEM & 10% FBS and incubated overnight in a 37° C., 5% CO2 incubator. The following day the cells were washed in HBSS and the assay was performed in 100 μl of HBSS. 50 μl of 4× compound in 4% DMSO was added to the cells and preincubated for 10 min. at 37° C. 50 μl of acetate solution (0.1 μCi ^14C acetate+10 μM ^12C acetate) was added to each well of the plate and incubated for 3 h in a 37° C., 5% CO2 incubator. Following incubation, cells were harvested with water on polyethylene imine (PEI) presoaked GF/C filtermat, air dried and radioactive count were recorded in Trilux micro beta Liquid Scintillation Counter (PerkinElmer).

human ACSS2 = target: T1, human ACSS2 (Homo sapiens, UniProt Q9NR19); test: ACSS2 enzyme assay (acetyl-CoA formation, LC-MS/MS); type: biochemical; conditions: cytosolic fraction of BT474 cells as ACSS2 source; 100 μM acetate, CoA and ATP; 2 h at 25° C.; read-out: Enzyme Activity (IC50 range)
T1 construct: The cytosolic fraction of BT474 cells was used as a source of the ACSS2 enzyme; endogenous in cells; host or cells: BT474 cells (cytosolic fraction)
T1 sequence (Q9NR19 whole entry): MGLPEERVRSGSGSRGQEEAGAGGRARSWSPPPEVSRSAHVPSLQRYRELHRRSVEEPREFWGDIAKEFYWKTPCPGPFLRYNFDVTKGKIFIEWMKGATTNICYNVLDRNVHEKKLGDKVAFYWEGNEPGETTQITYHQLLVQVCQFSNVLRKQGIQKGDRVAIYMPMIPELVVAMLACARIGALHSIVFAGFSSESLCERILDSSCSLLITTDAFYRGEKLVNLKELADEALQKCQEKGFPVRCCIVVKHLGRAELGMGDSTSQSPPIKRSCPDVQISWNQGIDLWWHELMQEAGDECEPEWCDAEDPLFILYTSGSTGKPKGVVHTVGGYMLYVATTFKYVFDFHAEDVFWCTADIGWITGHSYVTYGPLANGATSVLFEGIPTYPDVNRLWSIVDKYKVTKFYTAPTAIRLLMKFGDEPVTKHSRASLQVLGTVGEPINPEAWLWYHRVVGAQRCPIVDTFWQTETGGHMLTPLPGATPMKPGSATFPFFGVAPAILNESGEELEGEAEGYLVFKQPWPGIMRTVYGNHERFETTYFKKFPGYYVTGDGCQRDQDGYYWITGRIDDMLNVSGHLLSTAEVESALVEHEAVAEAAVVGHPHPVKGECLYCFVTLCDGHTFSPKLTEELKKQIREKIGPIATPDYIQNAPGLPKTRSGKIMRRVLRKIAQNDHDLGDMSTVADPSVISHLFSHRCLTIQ
Protocol: Novel compounds were screened in a human ACSS2 enzyme assay. Briefly, the ACSS2 enzyme reaction was monitored by directly measuring acetyl-CoA formation. The cytosolic fraction of BT474 cells was used as a source of the ACSS2 enzyme. A short protocol for this assay is provided below.
Preparation of Cytosolic Fraction from BT474 Cells
9×10^6 cells were harvested by trypsinization followed by centrifugation. The cell pellet was washed with PBS and dissolved in 500 μl STM buffer (50 mM Tris-HCl pH7.4, 250 mM sucrose, 5 mM MgCl2 & protease-phosphatase inhibitor cocktail) and homogenized at 600-1000 rpm for 1 min. on ice followed by incubation for 30 min. with intermittent vortexing. Supernatant was collected by centrifugation at 800 g for 15 min. at 4° C. Cytosolic fraction was prepared by further centrifugation of the supernatant at 12000 g for 15 min. at 4° C. Total protein content of the cytosolic fraction was estimated & diluted to 1 mg/ml concentration in storage buffer (25 mM Tris-HCl pH7.4, 1 mM MgCl2, 1 mM DTT & 10% glycerol) and stored at −80° C. for further use.
100 ng of cytosolic fraction in buffer composed of 25 mM Tris-HCl pH7.4 1 mM MgCl2, 1 mM DTT & 0.05% Tween20 was preincubated with desired concentrations of novel compounds for 5 min. maintaining 1% DMSO. Reaction was started with addition of substrate mix (100 μM of acetate, CoA and ATP) and incubated for 2 h at 25° C. with constant shaking at 500 rpm. Post incubation the reaction was terminated by addition of 10% TCA followed by 5 fold dilution in water. The reaction mixture was centrifuged at 800 g for 10 min. at RT and acetyl-CoA detected in supernatant by LC-MS/MS (QTrap5500 ABSCIEX).

[2] = Homo sapiens, BT-474, 3 h at 37° C.

| IC50 [1, 2] [nM] | IC50 (human ACSS2) [nM] | IC50 ([1]; 3 h at 37° C.) [nM] | Compound |
| --- | --- | --- | --- |
| > 10000 | ≤ 10000 |  | CCC(O)CNC(=O)Nc1ccc2nc(C(F)(F)F)c(-c3ccccc3)cc2c1 (stereo not shown) [Example 88, 1-(2-hydroxybutyl)-3-(3-phenyl-2-(trifluorometh-yl)quinolin-6-yl)urea] |
| < 100 | < 100 |  | CCC(=O)CCC(=O)Nc1ccc2nc(-c3ccccc3OC)c(-c3ccccc3F)cc2c1 [Example 126, N-(3-(2-fluoro-phenyl)-2-(2-methoxy-phenyl)quinolin-6-yl)-4-oxohexan-amide] |
| > 10000 | ≤ 10000 |  | CN1CCN(C(=O)Nc2ccc3nc(-c4ccccc4)c(-c4ccccc4)cc3c2)CC1 [Example 132, N-(2,3-diphenylquinolin-6-yl)-4-methylpiperazine-1-carboxamide] |
| < 100 | ≤ 1000 |  | CCCCNC(=O)Nc1ccc2nc(C)c(-c3ccccc3)cc2c1 [Example 76, 1-butyl-3-(2-methyl-3-phenylquinolin-6-yl)urea] |
| ≤ 10000 | ≤ 10000 |  | CCC(O)CNC(=O)Nc1ccc2nc(-c3cccc(C(C)=O)c3)c(-c3cccc(C(C)=O)c3)cc2c1 (stereo not shown) [Example 21, 1-(2,3-bis(3-acetylphenyl)quinolin-6-yl)-3-(2-hydroxybutyl) urea] |
| ≤ 1000 | ≤ 1000 |  | O=C(Nc1ccc2nc(-c3ccccc3)c(-c3ccccc3)cc2c1)NC1CCOCC1 [Example 137, 1-(2,3-diphenylquinolin-6-yl)-3-(tetrahydro-2H-pyran-4-yl)urea] |
| < 100 | < 100 |  | CCC(O)CNC(=O)Nc1ccc2nc(-c3ccccc3F)c(-c3ccccc3OC)cc2c1 (stereo not shown) [Example 26, 1-(2-(2-fluorophenyl)-3-(2-methoxyphenyl)quinolin-6-yl)-3-(2-hydroxybutyl) urea] |
| < 100 | < 100 |  | CCC(O)CNC(=O)Nc1ccc2nc(-c3ccccc3)c(-c3ccccc3)c(C(=O)OC)c2c1 (stereo not shown) [Example 48, methyl 6-(3-(2-hydroxybutyl)ureido)-2,3-diphenylquino-line-4-carboxylate] |
| < 100 | < 100 |  | CC[C@@H](O)CNC(=O)Nc1ccc2nc(-c3ccccc3)c(-c3ccccc3)c(C(N)=O)c2c1 [Example 57, (R)-6-(3-(2-hydroxybutyl)ureido)-2,3-diphenylquino-line-4-carboxamide] |
| < 100 | < 100 |  | CCC(O)CNC(=O)Nc1ccc2nc(-c3ccccc3)c(-c3ccccc3)c(C(N)=O)c2c1 (stereo not shown) [Example 49, 6-(3-(2-hydroxybutyl)ureido)-2,3-diphenylquino-line-4-carboxamide] |
| < 100 | < 100 |  | CCC(O)CNC(=O)Nc1ccc2nc(-c3ccccc3OC)c(-c3ccccc3OC)cc2c1 (stereo not shown) [Example 6, 1-(2,3-bis(2-methoxyphenyl)quinolin-6-yl)-3-(2-hydroxybutyl) urea] |
| < 100 | < 100 |  | CC[C@@H](O)CNC(=O)Nc1ccc2nc(-c3ccccc3)c(-c3ccccc3)c(C(=O)Nc3ccn(C)n3)c2c1 [Example 112, (R)-6-(3-(2-hydroxybutyl)ureido)-N-(1-methyl-1H-pyrazol-3-yl)-2,3-diphenylquino-line-4-carboxamide] |
| < 100 | < 100 |  | CCCCNC(=O)Nc1ccc2nc(-c3ccccc3)c(-c3ccccc3F)cc2c1 [Example 16, 1-butyl-3-(3-(2-fluorophenyl)-2-phenylquinolin-6-yl)urea] |
| < 100 | < 100 |  | CCC(=O)CCC(=O)Nc1ccc2nc(-c3ccccc3F)c(-c3ccccc3)cc2c1 [Example 123, N-(2-(2-fluorophenyl)-3-phenyl-quinolin-6-yl)-4-oxohexan-amide] |
| > 10000 | ≤ 10000 |  | CCC(O)CNC(=O)Nc1ccc2nc(/C=C/c3ccccc3)c(-c3ccccc3)cc2c1 (stereo not shown) [Example 50, (E)-1-(2-hydroxybutyl)-3-(3-phenyl-2-styrylquinolin-6-yl)urea] |
| < 100 | < 100 |  | CCC(F)(F)CNC(=O)Nc1ccc2nc(-c3ccccc3)c(-c3ccccc3)cc2c1 [Example 107, 1-(2,2-difluorobutyl)-3-(2,3-diphenylquinolin-6-yl)urea] |

| IC50 [1, 2] [nM] | IC50 (human ACSS2) [nM] | IC50 ([1]; 3 h at 37° C.) [nM] | Compound |
| --- | --- | --- | --- |
| < 100 | < 100 |  | CC[C@@H](O)CNC(=O)Nc1ccc2nc(-c3ccccc3OC)c(-c3ccccc3F)cc2c1 [Example 35, (R)-1-(3-(2-fluorophenyl)-2-(2-methoxyphenyl)quinolin-6-yl)-3-(2-hydroxybutyl) urea] |
| ≤ 1000 | < 100 |  | CCC(O)CNC(=O)Nc1ccc2nc(C)c(-c3ccccc3)c(NC(C)=O)c2c1 (stereo not shown) [Example 93, N-(6-(3-(2-hydroxybutyl)ureido)-2-methyl-3-phenylquinolin-4-yl)acetamide] |
| < 100 | < 100 |  | CC[C@@H](O)CNC(=O)Nc1ccc2nc(-c3ccccc3)c(-c3ccccc3)c(OC)c2c1 [Example 101, (R)-1-(2-Hydroxybutyl)-3-(4-methoxy-2,3-diphenylquinolin-6-yl)urea] |
| < 100 | < 100 |  | CCC(O)CCC(=O)Nc1ccc2nc(C)c(-c3ccccc3F)cc2c1 (stereo not shown) [Example 129, N-(3-(2-fluorophenyl)-2-methyl-quinolin-6-yl)-4-hydroxy-hexanamide] |
| > 10000 | ≤ 10000 |  | CCC(O)CNC(=O)Nc1ccc2nc(-c3cn[nH]c3)c(-c3cn[nH]c3)cc2c1 (stereo not shown) [Example 22, 1-(2,3-di(1H-pyrazol-4-yl)quinolin-6-yl)-3-(2-hydroxybutyl) urea] |
| < 100 | < 100 |  | CCOc1ccccc1-c1nc2ccc(NC(=O)NCC(O)CC)cc2cc1-c1ccccc1 (stereo not shown) [Example 58, 1-(2-(2-ethoxyphenyl)-3-phenylquinolin-6-yl)-3-(2-hydroxybutyl) urea] |
| ≤ 1000 | < 100 |  | CCC(O)CNC(=O)Nc1ccc2nc(C)c(-c3ccccc3)c(C(N)=O)c2c1 (stereo not shown) [Example 66, 6-(3-(2-hydroxybutyl)ureido)-2-methyl-3-phenylquinoline-4-carboxamide] |
| ≤ 1000 | ≤ 1000 |  | C#CCNC(=O)Nc1ccc2nc(-c3ccccc3)c(-c3ccccc3)cc2c1 [Example 135, 1-(2,3-diphenylquinolin-6-yl)-3-(prop-2-yn-1-yl)urea] |
| < 100 | < 100 |  | CCC(O)CNC(=O)Nc1ccc2nc(C)c(-c3ccccc3)cc2c1C1CC1 (stereo not shown) [Example 86, 1-(5-cyclopropyl-2-methyl-3-phenylquinolin-6-yl)-3-(2-hydroxybutyl) urea] |
| ≤ 1000 | < 100 |  | CC[C@@H](O)CNC(=O)Nc1ccc2nc(-c3ccccc3)c(C)c(C(=O)NCc3cnn(C)c3)c2c1 [Example 114, (R)-6-(3-(2-hydroxybutyl)ureido)-3-methyl-N-((1-methyl-1H-pyrazol-4-yl)methyl)-2-phenylquinoline-4-carboxamide] |
| < 100 | < 100 |  | CCC(O)CNC(=O)Nc1ccc2nc(-c3ccc(F)cc3)c(-c3ccc(F)cc3)cc2c1 (stereo not shown) [Example 17, 1-(2,3-bis(4-fluorophenyl)quinolin-6-yl)-3-(2-hydroxybutyl) urea] |
| < 100 | < 100 |  | CC[C@@H](O)CNC(=O)Nc1ccc2nc(C)c(-c3ccccc3)c(OC)c2c1 [Example 102, (R)-1-(2-hydroxybutyl)-3-(4-methoxy-2-methyl-3-phenylquinolin-6-yl)urea] |
| < 100 | < 100 |  | CCC(O)CNC(=O)Nc1ccc2nc(-c3ccccc3)c(-c3ccccc3)c(N)c2c1 (stereo not shown) [Example 95, 1-(4-Amino-2,3-diphenylquinolin-6-yl)-3-(2-hydroxybutyl)urea] |
| < 100 | < 100 |  | CCC(=O)CCC(=O)Nc1ccc2nc(-c3ccccc3F)c(-c3ccccc3F)cc2c1 [Example 124, N-(2,3-Bis(2-fluorophenyl)quinolin-6-yl)-4-oxohexanamide] |
|  |  | < 100 | CC[C@H](O)CNC(=O)Nc1ccc2nc(-c3ccccc3)c(-c3ccccc3)cc2c1 [Example 68, (S)-1-(2,3-diphenylquino-lin-6-yl)-3-(2-hydroxybutyl) urea] |
